Measured values: patent publication US20250082570A1, “COMBINATION THERAPY FOR TREATING NON-TUBERCULOUS MYCOBACTERIAL LUNG DISEASE” (priority 2021, published 2025)
Like-named read-outs stand apart in the source and are kept apart here.

Test system: M abscessus ATCC 19977 Type strain
Experiment: checkerboard minimum inhibitory concentration (MIC) assay with FICI calculation
Assay type: cell-based
Details: for MIC: 168 h; for Active Agent-Y MIC Combination: MIC of the labelled Antiinfective-Y in combination with amikacin; for Definition (interpretation of FICI) / FICI (Fractional Inhibitory Concentration Index): labelled Antiinfective-Y in combination with amikacin
[1] = read-out: Active Agent-Y MIC Alone
[2] = Antiinfective-Y alone, M abscessus ATCC 19977, 37° C., 7 days, absorbance 595 nm, read-out: Active Agent-Y MIC Alone

SMILES | MIC [1] [µg/mL] | Active Agent-Y MIC Combination (M abscessus ATCC 19977, 7 days) [µg/mL] | Definition (interpretation of FICI) (M abscessus ATCC 19977) | FICI (Fractional Inhibitory Concentration Index) (M abscessus ATCC 19977) | MIC (amikacin alone (column 12 of the checkerboard plate run with the row's Antiinfective-Y), M abscessus ATCC 19977, 37° C., 7 days, absorbance 595 nm, read-out: Amikacin (Active Agent-X) MIC Alone) [µg/mL] | Amikacin (Active Agent-X) MIC Alone (amikacin alone (column 12 of the checkerboard plate run with the row's Antiinfective-Y), M abscessus ATCC 19977, 37° C., 7 days, absorbance 595 nm) [µg/mL] | MIC [2] [µg/mL]
CO[C@H]1/C=C/O[C@@]2(C)Oc3c(C)c(O)c4c(O)c(c(/C=N/N5CCN(C)CC5)c(O)c4c3C2=O)NC(=O)/C(C)=C\C=C\[C@H](C)[C@H](O)[C@@H](C)[C@@H](O)[C@@H](C)[C@H](OC(C)=O)[C@@H]1C [Rifampicin] | 8 | 0.5 | Synergy (<0.5) | 0.31 | – | – | –
COc1c(N2C[C@@H]3CCCN[C@@H]3C2)c(F)cc2c(=O)c(C(=O)O)cn(C3CC3)c12 [Moxifloxacin] | 1 | 0.125 | Synergy (<0.5) | 0.38 | – | – | –
NCC[C@H](O)C(=O)N[C@@H]1C[C@H](N)[C@@H](O[C@H]2O[C@H](CN)[C@@H](O)[C@H](O)[C@H]2O)[C@H](O)[C@H]1O[C@H]1O[C@H](CO)[C@@H](O)[C@H](N)[C@H]1O [Amikacin] | – | – | – | – | 2 | 1 | –
C=CC1=C(C(=O)O)N2C(=O)[C@@H](NC(=O)/C(=N\O)c3csc(N)n3)[C@H]2SC1 [Cefdinir] | – | 0.5 | Synergy (<0.5) | 0.13 | – | – | 8
C[C@@H](O)[C@H]1C(=O)N2C(C(=O)[O-])=C(SC3Cn4cnc[n+]4C3)[C@H](C)[C@H]12 (some centres unmarked) [Biapenem] | – | 0.0625 | Synergy (<0.5) | 0.07 | – | – | 8
Cn1nnc(-c2ccc(-c3ccc(N4C[C@H](CO)OC4=O)cc3F)cn2)n1 [Tedizolid] | – | 0.5 | Additive | 3.00 | – | – | 0.5
COc1nc2ccc(Br)cc2cc1[C@@H](c1ccccc1)[C@@](O)(CCN(C)C)c1cccc2ccccc12 [Bedaquiline] | 2 | 0.125 | Synergy (<0.5) | 0.09 | – | – | –
CO[C@H]1/C=C/O[C@@]2(C)Oc3c(C)c(O)c4c(c3C2=O)C2=NC3(CCN(CC(C)C)CC3)NC2=C(NC(=O)/C(C)=C\C=C\[C@H](C)[C@H](O)[C@@H](C)[C@@H](O)[C@@H](C)[C@H](OC(C)=O)[C@@H]1C)C4=O [Rifabutin] | – | 0.0625 | Synergy (<0.5) | 0.31 | – | – | 1
C[C@H]1COc2c(N3CCN(C)CC3)c(F)cc3c(=O)c(C(=O)O)cn1c23 [Levofloxacin] | 4 | 0.0625 | Synergy (<0.5) | 0.14 | – | – | –
CN[C@H](CC(C)C)C(=O)N[C@H]1C(=O)N[C@@H](CC(N)=O)C(=O)N[C@H]2C(=O)N[C@H]3C(=O)N[C@H](C(=O)N[C@H](C(=O)O)c4cc(O)cc(O)c4-c4cc3ccc4O)[C@H](O)c3ccc(c(Cl)c3)Oc3cc2cc(c3O[C@@H]2O[C@H](CO)[C@@H](O)[C@H](O)[C@H]2O[C@H]2C[C@](C)(N)[C@H](O)[C@H](C)O2)Oc2ccc(cc2Cl)[C@H]1O [Vancomycin] | 4 | 1 | Additive | 0.50 | – | – | –
CC[C@@H](CO)NCCN[C@@H](CC)CO [Ethambutol] | 16 | 4 | Synergy (<0.5) | 0.38 | – | – | –
CC(=O)NC[C@H]1CN(c2ccc(N3CCOCC3)c(F)c2)C(=O)O1 [Linezolid] | – | 2 | Additive | 3.00 | – | – | 2
CN(C)c1cc(NC(=O)CNC(C)(C)C)c(O)c2c1C[C@H]1C[C@H]3[C@H](N(C)C)C(O)=C(C(N)=O)C(=O)[C@@]3(O)C(O)=C1C2=O [Tigecycline] | 2 | 0.5 | Additive | 0.75 | – | – | –
CC(C)/N=c1\cc2n(-c3ccc(Cl)cc3)c3ccccc3nc-2cc1Nc1ccc(Cl)cc1 [Clofazimine] | 2 | 0.0625 | Synergy (<0.5) | 0.16 | – | – | –
C[C@@H](O)[C@H]1C(=O)N2C(C(=O)O)=C(S[C@@H]3CN[C@H](CNS(N)(=O)=O)C3)[C@H](C)[C@H]12 [Doripenem] | – | 0.25 | Synergy (<0.5) | 0.31 | – | – | 4
CC[C@H]1OC(=O)[C@H](C)[C@@H](O[C@H]2C[C@@](C)(OC)[C@@H](O)[C@H](C)O2)[C@H](C)[C@@H](O[C@@H]2O[C@H](C)C[C@H](N(C)C)[C@H]2O)[C@](C)(OC)C[C@@H](C)C(=O)[C@H](C)[C@@H](O)[C@]1(C)O [Clarithromycin] | – | 0.25 | Additive | 2.50 | – | – | 0.5
C[C@@H](O)[C@H]1C(=O)N2C(C(=O)O)=C(SCCN=CN)C[C@H]12 [Imipenem] | – | 0.25 | Synergy (<0.5) | 0.38 | – | – | 2
C[C@@H](O)[C@H]1C(=O)N2C(C(=O)O)=C(SC3CN(C4=NCCS4)C3)[C@H](C)[C@H]12 [Tebipenem] | – | 0.25 | Synergy (<0.5) | 0.28 | – | – | 8
COc1ccc2cc1Oc1ccc(cc1)C[C@H]1c3cc(c(OC)cc3CCN1C)Oc1c(OC)c(OC)cc3c1[C@H](C2)N(C)CC3 [Tetrandrine] | 64 | 8 | Synergy (<0.5) | 0.25 | – | – | –
